Common to all, as to type: cell-based, human
Experiment [1] deals with NAP1L1 Cys-388, NAP1L4 Cys-383. Description: quantifying prenylated (farnesylated) proteins in hCO proteomics. As for the experimental part:
Targeted data extraction to quantify prenylated peptides was performed manually in the Skyline Environment (MacLean et al., 2010) on Andremoda/MaxQuant search results which included the variable modification of farnesylation (cysteine; C15H24; 204.1878) and geranylation (cysteine; […]; 272.2504) with neutral loss. Only peptides with an Andromeda score >100 and a localization probability >0.75% were included in the analysis.
Given that several metabolites of the mevalonate pathway are required for post-translational modifications such as prenylation, we next performed targeted data extraction of our proteomic analysis (Gillet et al., 2012) for the addition of geranylgeranyl or farnesyl groups. We identified key targets of farnesylation, including NAP1L1 at Cys-388, which was also shown to be farnesylated in a prior study (Kho et al., 2004), and NAP1L4 at Cys-383, which we have identified as a novel farnesylated protein (FIG. 15C).

The next experiment has as its system hPSC-CMs. Description: 2D high-content primary screen, DNA synthesis (EdU) in hPSC-CM. The note with it: for 2D Screen Max Effect (%): maximum over 0.1, 1, 10 uM. An excerpt: The compound library included 5,000 biologically annotated pre-clinical, clinical, and tool compounds. They were selected based on a combination of criteria including balancing the number of external/internal compounds, diversity of annotated targets to cover greater than 1500 biological targets, and known targets associated with cell proliferation. […] Both negative vehicle (DMSO) and positive (CHIR99021) controls were included on each plate in each experiment (FIG. 2B,C).

For a further experiment, the system named is mature hCO. Description: single organoid quantitative proteomics of mature hCO. The note with it: for cell cycle programs regulated at the protein level: mature hCO, 2 days. As for the experimental part:
Single hCO were washed 2× in PBS and snap frozen and stored at −80° C. Tissues were lysed in by tip-probe sonication in 1% SDS containing 100 mM Tris pH 8.0, 10 mM tris(2-carboxyethyl)phosphine, 40 mM 2-chloroacetamide and heated to 95° C. for 5 min. Proteins were purified using a modified Single-Pot Solid-Phase-enhanced Sample Preparation (SP3) strategy (Hughes et al., 2014). Briefly, Proteins were bound to Sera-Mag carboxylate coated paramagnetic beads in 50% acetonitrile containing 0.8% formic acid (v/v) (ThermoFisher Scientific). The beads were washed twice with 70% ethanol (v/v) and once with 100% acetonitrile. Proteins were digested on the beads in 100 mM Tris pH 7.5 containing 10% 2,2,2-Trifluoroethanol overnight at 37° C. with 200 ng of sequencing grade LysC (Wako Chemicals) and trypsin (Sigma). Beads were removed and peptides acidified to 1% trifluoroacetic acid prior to purification by styrene divinyl benzene-reversed phase sulfonated solid phase extraction microcolumns. Peptides were spiked with iRT peptides (Biognosys) and analysed on an Easy-nLC1200 coupled to a Q-Exactive HF in positive polarity mode. Peptides were separated using an in-house packed 75 μm×50 cm pulled column (1.9 μm particle size, C18AQ; Dr Maisch) with a gradient of 2-35% acetonitrile containing 0.1% FA over 120 min at 300 nL/min at 60° C. The instrument was operated in data-independent acquisition (DIA) mode essentially as described previously (Bruderer et al., 2017). Briefly, an MS1 scan was acquired from 350-1650 m/z (120,000 resolution, 3e6 AGC, 50 ms injection time) followed by 20 MS/MS variable sized isolation windows with HCD (30,000 resolution, 3e6 AGC, 27 NCE). A spectral library was created by fractionating a pooled mix of peptides from 10 separate hCO on an inhouse packed 320 μm×25 cm column (3 μm particle size, BEH; Waters) with a gradient of 2-40% acetonitrile containing 10 mM ammonium formate over 60 min at 6 μL/min using an Agilent 1260 HPLC. A total of 12 concatenated fractions were analysed using the identical LC-MS/MS conditions above except the instrument was operated in data-dependent acquisition (DDA) mode. Briefly, an MS1 scan was acquired from 350-1650 m/z (60,000 resolution, 3e6 AGC, 50 ms injection time) followed by 20 MS/MS with HCD (1.4 m/z isolation, 15,000 resolution, 1e5 AGC, 27 NCE). DDA data were processed with Andromeda in MaxQuant v1.5.8.3 (Cox and Mann, 2008) against the human UniProt database (January 2016) using all default settings with peptide spectral matches and protein false discovery rate (FDR) set to 1%. DIA data were processed with Spectronaut v11 (Bruderer et al., 2015) using all default settings with precursor and protein FDR set to 1% and quantification performed at MS2.
Proteomic data were Log 2 transformed and median normalised. Removal of unwanted variation method (RUV) was applied to remove any batch effects (Gagnon-Bartsch et al., 2013). Differential abundance was determined with two sample t-tests with FDR-based multiple hypothesis testing correction. GO analysis was performed with DAVID v6.8 and gene ontology terms from BP_FAT (Huang da et al., 2009) and heat-maps and hierarchical clustering was performed using GENE-E (Broad Institute).
In order to determine the biological processes driving the pro-proliferative effects of our hit compounds, we performed RNA-sequencing (RNA-seq) and single organoid quantitative proteomics (FIG. 4A). These analyses were performed on hCOs treated with compounds 3, 63 and 65 at concentrations of 3 μM, 0.3 μM and 1 μM, respectively. RNA-seq for hCO treated with compounds 3 and 65 clustered distinctly in principal component analysis (FIG. 4B) and regulated a total of 239 and 207 genes (FIG. 9A), respectively.

With `Cc1ccc(NC(=O)c2ccnc(N3CCOCC3)c2)cc1Nc1ccnc(N2CC(C)OC(C)C2)n1` (centres unmarked) [compound 3], in experiment [1], the “farnesylation of NAP1L1 at Cys-388” value is “increased” and the “farnesylation of NAP1L4 at Cys-383” value is recorded as “only increased farnesylation of NAP1L1”. In the experiment with hPSC-CMs, the “2D Screen (AZ) 0.1 uM Prolif Activation EdU (%)” value is listed as −6%, the “2D Screen (AZ) 1 uM Prolif Activation EdU (%)” value amounted to 35%, the “2D Screen (AZ) 10 uM Prolif Activation EdU (%)” value stood at 183% and the “2D Screen Max Effect (%)” value was determined as 183%. In the experiment on mature hCO (mature hCO proteomics), the “proliferation signature proteins (cell cycle network, mevalonate enzymes, nuclear transporters)” value is listed as “induced”. Moreover, the “cell cycle programs regulated at the protein level” value in the experiment with mature hCO was “DNA replication, G1/S transition and G2/M transition”.

As to `Cc1cc(Oc2ccnc(Nc3ccc(S(N)(=O)=O)cc3)c2)c(-c2ccccn2)nc1C` [compound 65], in experiment [1], the “farnesylation of NAP1L1 at Cys-388” value is “increased” and the “farnesylation of NAP1L4 at Cys-383” value was “increased”. In addition, in the experiment on hPSC-CMs, the “2D Screen (AZ) 0.1 uM Prolif Activation EdU (%)” value is given as 48%, the “2D Screen (AZ) 1 uM Prolif Activation EdU (%)” value came out at 76%, the “2D Screen (AZ) 10 uM Prolif Activation EdU (%)” value amounted to 171% and the “2D Screen Max Effect (%)” value stood at 171%. Besides, in the experiment on mature hCO (mature hCO proteomics), the “induction of the mevalonate pathway (cholesterol biosynthetic process enzymes)” value is reported as “most robust inducers” and the “proliferation signature proteins (cell cycle network, mevalonate enzymes, nuclear transporters)” value is listed as “induced”. Moreover, the “cell cycle programs regulated at the protein level” value in the experiment on mature hCO was “DNA replication, G1/S transition and G2/M transition”.
